The species entered for data set [1] is Mus musculus. Put plainly: Time of peak effect was determined for toxicity. Type of data set: organism-based. Also on record: unit not given here. The conditions noted are these: in vivo.
Data set [2] is described as follows: Protective index was calculated (TD50/ED50) in MES assay in mice after intraperitoneal administration. It counts as functional.
Data set [3] relates to Mus musculus. Briefly: Anticonvulsant activity against maximal electroshock induced seizures (MES) after 0.5 hr at 300 mg/kg; Active. Also on record: dose 300 mg/kg. Type of data set: functional, organism-based. (Protection in the maximal electroshock model is a classic sign of anticonvulsant action.)
Data set [4] deals with Mus musculus. Briefly: The Neurologic toxicity by measuring rotarod test after 4 hr; Not active up to 300 mg/kg. Type of data set: organism-based. Also on record: dose 300 mg/kg. The conditions noted are these: in vivo. For orientation: Falling from the rotarod earlier than controls is read as motor impairment.
For data set [5], the system named is Mus musculus. Put plainly: The Neurologic toxicity by measuring rotarod test after 0.5 hr at 300 mg/kg; Active. It counts as organism-based. More on the design: dose 300 mg/kg. As to conditions: in vivo.
The nature of data set [6]: The cytotoxicity after intraperitoneal administration. It counts as organism-based. The conditions noted are these: mouse, in vivo, ip.
The species named for data set [7] is Mus musculus. Briefly: Time of peak effect was determined for activity in MES. It counts as functional. More on the design: unit not given here.
Data set [8] deals with Mus musculus. Put plainly: Anticonvulsant activity against maximal electroshock induced seizures after 4 hr; Not active up to 300 mg/kg. Type of data set: functional, organism-based. More on the design: dose 300 mg/kg.
A short description of data set [9]: Protective index was calculated (TD50/ED50) in scMET assay in mice after intraperitoneal administration. Type of data set: functional.
Data set [10] has as its system Mus musculus. Put plainly: The effective dose of compound was tested against maximal electroshock induced seizures after intraperitoneal administration. It counts as functional. The conditions noted are these: ip.
The subject of data set [11] is Mus musculus. Put plainly: Anticonvulsant activity against subcutaneous administered Metrazol induced seizures (scMET) after 0.5 hr at 100 mg/kg; Active. Type of data set: functional, organism-based. More on the design: dose 100 mg/kg.
Data set [12] concerns Mus musculus. Put plainly: The effective dose of compound was tested against subcutaneous administered Metrazol induced seizures after intraperitoneal administration. Type of data set: functional.
Data set [13] relates to Mus musculus. Briefly: Anticonvulsant activity against subcutaneous administered Metrazol induced seizures (scMET) after 4 hr; Not active up to 300 mg/kg. Type of data set: functional, organism-based. More on the design: dose 300 mg/kg.
In data set [14] the test system is Mus musculus. Put plainly: Anticonvulsant activity against subcutaneous administered Metrazol induced seizures (scMET) after 0.5 hr; Not active up to 300 mg/kg. Also on record: dose 300 mg/kg. It counts as functional, organism-based.
In data set [15] the test system is Mus musculus. Briefly: The Neurologic toxicity by measuring rotarod test after 0.5 h; Not active up to 300 mg/kg. As to conditions: in vivo. Also on record: dose 300 mg/kg. It counts as organism-based.
For data set [16], the system named is Mus musculus. Briefly: Anticonvulsant activity against maximal electroshock induced seizures (MES) after 0.5 h; Not active up to 300 mg/kg. It counts as functional, organism-based. More on the design: dose 300 mg/kg.
The subject of data set [17] is Mus musculus. Put plainly: The Neurologic toxicity by measuring rotarod test after 4 hr at 300 mg/kg; Active. More on the design: dose 300 mg/kg. As to conditions: in vivo. It counts as organism-based.
Data set [18] has as its system Mus musculus. Put plainly: Anticonvulsant activity against maximal electroshock induced seizures (MES) after 4 hr at 300 mg/kg; Active. More on the design: dose 300 mg/kg. It counts as functional, organism-based.
In data set [19] the test system is Mus musculus. Put plainly: Anticonvulsant activity against subcutaneous administered Metrazol induced seizures (scMET) after 0.5 hr at 300 mg/kg; Active. It counts as functional, organism-based. Also on record: dose 300 mg/kg.
The test system of data set [20] is Mus musculus. Put plainly: Anticonvulsant activity against subcutaneous administered Metrazol induced seizures (scMET) after 4 hr at 300 mg/kg; Active. It counts as functional, organism-based. More on the design: dose 300 mg/kg.

The text below walks through data of ChEMBL document CHEMBL1124722, “Synthesis and anticonvulsant activity of 2-benzylglutarimides” (J Med Chem, 1990).

The source made the active and inactive calls. The calls are words filed in the database; no cut-off is given here.

For orientation: TD50 means the dose at which the toxic effect under study appears in half of the subjects. For orientation: ED50 means the dose that gives a 50% effect, or the effect in half of the subjects.

Consider `CN1C(=O)CCC(Cc2ccc(Cl)cc2)C1=O` (configuration not stated), for which the TPE in the data set listed under Mus musculus [1] is recorded as 1; in the data set filed under Mus musculus [7], 0.5. Moreover, the values for the Ratio in data set [2] and in data set [9] were 1.4 and 2.81, respectively. For the same molecule, the result in the data set with Mus musculus [3] and with Mus musculus [11] was Active. Besides, the Toxicity result in the data set with Mus musculus [4] was “Not Active”; in the data set with Mus musculus [5], “Active”. This molecule returned a TD50 in data set [6] of 348 mg/kg. Also, the outcome with Mus musculus [8] and in the data set on Mus musculus [13] was inactive. Also, the ED50 in the data set with Mus musculus [10] came out at 248 mg/kg; with Mus musculus [12], 124 mg/kg.
As to `O=C1CCC(Cc2ccc(-c3ccccc3)cc2)C(=O)N1` (configuration not stated), the outcome with Mus musculus [14], in the data set with Mus musculus [8], with Mus musculus [16] and in the data set with Mus musculus [13] was inactive. Also, the Toxicity entry in the data set with Mus musculus [4] and in the data set on Mus musculus [15] was “Not Active” each time.
For the molecule `CC(C)Oc1ccc(CC2CCC(=O)NC2=O)cc1` (configuration not stated), the outcome in the data set on Mus musculus [14], in the data set with Mus musculus [8], with Mus musculus [16] and in the data set with Mus musculus [13] was inactive. Besides, the Toxicity entry in the data set on Mus musculus [5] and in the data set on Mus musculus [17] was “Active” each time.
In the case of `CN1C(=O)CCC(Cc2ccc(C(F)(F)F)cc2)C1=O` (configuration not stated), the Toxicity entry in the data set on Mus musculus [4] and in the data set with Mus musculus [15] was “Not Active” each time. Further, the outcome in the data set with Mus musculus [16] was inactive. Also, the outcome in the data set on Mus musculus [18], in the data set with Mus musculus [19] and in the data set on Mus musculus [20] was Active.
In the case of `CN1C(=O)CCC(Cc2ccccc2)C1=O` (configuration not stated), the Toxicity entry in the data set with Mus musculus [4] and in the data set on Mus musculus [15] was “Not Active” in each case. The result in the data set on Mus musculus [8], in the data set on Mus musculus [16] and in the data set with Mus musculus [13] was inactive.
Take `O=C1CCC(Cc2ccccc2Br)C(=O)N1` (configuration not stated): the outcome in the data set with Mus musculus [14], in the data set with Mus musculus [8], in the data set with Mus musculus [16] and in the data set on Mus musculus [13] was inactive. Moreover, the Toxicity result in the data set on Mus musculus [5] and in the data set with Mus musculus [17] was “Active” each time.
For the molecule `O=C1CCC(Cc2ccc(F)cc2)C(=O)N1` (configuration not stated), the Toxicity entry in the data set on Mus musculus [4] is “Not Active”; in the data set with Mus musculus [5] it was “Active”. The result in the data set on Mus musculus [8] and in the data set with Mus musculus [13] was inactive. Further, the outcome in the data set with Mus musculus [19] was Active.
`CCCOc1ccc(CC2CCC(=O)NC2=O)cc1` (configuration not stated): the result in the data set on Mus musculus [14], in the data set on Mus musculus [8], in the data set with Mus musculus [16] and in the data set with Mus musculus [13] was inactive. The Toxicity entry in the data set with Mus musculus [5] and with Mus musculus [17] was “Active” throughout.
`O=C1CCC(Cc2ccc(Cl)c(Cl)c2)C(=O)N1` (configuration not stated): the outcome in the data set on Mus musculus [14], in the data set with Mus musculus [8], in the data set on Mus musculus [16] and in the data set on Mus musculus [13] was inactive. Besides, the Toxicity result in the data set on Mus musculus [4] and with Mus musculus [15] was “Not Active” throughout.
As for `CN1C(=O)CCC(Cc2ccc(Br)cc2)C1=O` (configuration not stated), the TPE came out at 1.5 in the data set listed under Mus musculus [1] and 1 in the data set filed under Mus musculus [7]. The figures for the Ratio in data set [2] and in data set [9] were 3.8 and 3.72, respectively. For the same molecule, the result with Mus musculus [3] and in the data set with Mus musculus [11] was Active. Moreover, the Toxicity entry with Mus musculus [4] and in the data set on Mus musculus [15] was “Not Active” throughout. The same molecule had a TD50 in data set [6] of 534 mg/kg. Also, the outcome in the data set with Mus musculus [8] and with Mus musculus [13] was inactive. The ED50 stood at 162 mg/kg in the data set with Mus musculus [10] and 143 mg/kg with Mus musculus [12].
